Among the data in patent US7943658B2, “Indole indane amide compounds useful as CB2 agonists and method” (Bristol-Myers Squibb Company, priority 2007, dated 2011) are Ki and EC50 values, retold here.

The term Ki denotes the dissociation constant of the complex between target and ligand, obtained from inhibition or displacement. A word on the EC50: it is the concentration giving half of the maximal effect. Low values mean a more potent agent, high ones a less potent agent.

For one assay, the target named is T1, hCB2 receptors (Homo sapiens, UniProt P34972).
T1 construct: expressed in transfected cells; host or cells: CHO cells
T1 sequence (P34972 whole entry): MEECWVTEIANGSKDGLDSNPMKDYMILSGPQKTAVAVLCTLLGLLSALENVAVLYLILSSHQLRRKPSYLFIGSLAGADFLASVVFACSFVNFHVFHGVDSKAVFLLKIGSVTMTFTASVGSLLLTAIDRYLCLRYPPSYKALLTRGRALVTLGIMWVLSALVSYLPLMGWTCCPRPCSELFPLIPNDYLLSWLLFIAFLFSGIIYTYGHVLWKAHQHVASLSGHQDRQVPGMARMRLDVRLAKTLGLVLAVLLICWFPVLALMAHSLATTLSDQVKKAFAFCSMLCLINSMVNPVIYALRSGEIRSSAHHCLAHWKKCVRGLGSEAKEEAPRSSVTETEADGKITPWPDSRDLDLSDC
Description: Filtration binding assay, [3H]CP55,940 displacement. Conditions: membrane proteins or CHO cells expressing hCB2, read-out: CB2 binding Ki. Here is the method:
Compound dilutions were carried out in duplicate in binding buffer [25 mM HEPES pH 7.4, 150 mM NaCl, 1 mM EDTA, 2 mM MgCl2, 0.25% BSA, […]]. Mix binding buffer, membrane proteins (or CHO cells expressing hCB2 receptors) together. Dispense 75 ul of mixture into each well in 96 well plates. Add 1 ul of drug in DMSO, or DMSO alone into each well. 1:500-1000 dilute the hot ligand [^3H]CP55,940 (specific activity=120 Ci/mmol; PerkinElmer Life and Analytical Sciences) in binding buffer and add 25 ul per well with either 5 ug/well cell membrane or 50000 cells/well. After incubation at room temperature for 2 hours, transfer the binding reaction onto filtration plates (UniFilter CF/C filter plate presoaked with 0.3% polyethylenimine; PerkinElmer Life and Analytical Sciences) using Packard Cell Harvester. Wash the filter with quarter strength of PBS (1:4 dilution of regular PBS with H2O) 8 times. Air dry the filter, add 40 ul MicroScint20 into each well, seal the top, and count with the TopCount. Bound radioactivity was analyzed for Ki using nonlinear regression analysis (Excel Xfit) with the Kd values for [3H]CP55,940 determined from saturation experiments.

The target in assay [1] is T2, CB2/CHO cell membrane proteins (Homo sapiens, UniProt P34972).
T2 construct: expressed in transfected cells; host or cells: CHO cells (membranes)
T2 sequence (P34972 whole entry): as above
Description: GTPgS binding assay. Format: biochemical. Conditions: [35S]GTPγS, CB2/CHO cell membranes. The method, then: Add 50 ul of reaction mixture containing 2 ug of CB2/CHO cell membrane proteins, 10 ul WGA-PVT beads (20 mg/ml), and 5 uM GDP in assay buffer (20 mM HEPES pH 7.4, 100 mM NaCl, 1 mM EDTA, 10 mM MgCl2, 10 ug/ml saponin, 0.25% BSA, and 1 uM leupeptin) into each well in 96 well white plate (Corning 3693, VWR#29444-312). Add 1 ul of testing compound into test, 1 ul of DMSO into basal, 1 ul of 200 uM CP55,940 into 100% activation, 1 ul of 1 mM cold GTPγS into NSB wells, respectively. Dilute [^35S]GTPγS (1:12.5 pre-diluted 1 uCi/ul stock, NEG030H, NEN) 1:1350 in binding buffer and add 25 ul into each well (200 pM final). Incubate at RT for 90 min and spin the plate at 1000 rpm for 5 min before counting with TopCount for 1-2 min.
(GTPγS is a poorly hydrolysed GTP analogue; its binding reports G protein activation.)

Regarding `CC1(C)Cc2ccc(C#N)cc2[C@@H]1NC(=O)c1cc2cc(O)ccc2[nH]1` [Example 1, (R)—N-(6-Cyano-2,2-dimethyl-2,3-dihydro-1H-inden-1-yl)-5-hydroxy-1H-indole-2-carboxamide], on hCB2 receptors, the Ki came to 3 nM. Besides, in assay [1], the EC50 worked out at 2.4 ± 0.55 nM. Turning to `CC1(C)Cc2ccc(C#N)cc2[C@H]1NC(=O)c1cc2cc(O)ccc2[nH]1` [Example 1A, (S)—N-(6-Cyano-2,2-dimethyl-2,3-dihydro-1H-inden-1-yl)-5-hydroxy-1H-indole-2-carboxamide], the Ki at hCB2 receptors was found to be 1590 nM. Take `CC1(C)Cc2ccc(C#N)cc2[C@@H]1NC(=O)c1cc2cc(Cl)ccc2[nH]1` [Example 2, (R)N-(6-Cyano-2,2-dimethyl-2,3-dihydro-1H-inden-1-yl)-5-chloro-1H-indole-2-carboxamide]: the Ki at hCB2 receptors was 0.71 ± 0.18 nM. The same compound gave an EC50 in assay [1] of 2.2 ± 0.48 nM.

`Cn1c(C(=O)N[C@H]2c3cc(C#N)ccc3CC2(C)C)cc2cc(Cl)ccc21` [Example 3, (R)-5-Chloro-N-(6-cyano-2,2-dimethyl-2,3-dihydro-1H-inden-1-yl)-1-methyl-1H-indole-2-carboxamide]: at hCB2 receptors, the inhibition constant (Ki) worked out at 7.6 ± 1.7 nM. In addition, in assay [1], the half-maximal effective concentration (EC50) came to 4.5 ± 1.2 nM. The like results for `CN(C)CCn1c(C(=O)N[C@H]2c3cc(C#N)ccc3CC2(C)C)cc2cc(Cl)ccc21` [Example 4, (R)-5-Chloro-N-(6-cyano-2,2-dimethyl-2,3-dihydro-1H-inden-1-yl)-1-(2-(dimethylamino)ethyl)-1H-indole-2-carboxamide] were, in that order, 60 ± 26 nM and 8.1 ± 2.2 nM. The like results for `CC1(C)Cc2ccc(C#N)cc2[C@@H]1NC(=O)c1cc2cc(Cl)ccc2n1CCN1CCOCC1` [Example 5, (R)-5-Chloro-N-(6-cyano-2,2-dimethyl-2,3-dihydro-1H-inden-1-yl)-1-(2-morpholinoethyl)-1H-indole-2-carboxamide] were, in that order, 39 ± 14 nM and 7.8 ± 2.5 nM. Consider `CC1(C)Cc2ccc(C#N)cc2[C@@H]1NC(=O)c1cc2ccccc2[nH]1` [Example 6, (R)—N-(6-Cyano-2,2-dimethyl-2,3-dihydro-1H-inden-1-yl)-1H-indole-2-carboxamide], for which the Ki at hCB2 receptors came out at 2.4 ± 1.1 nM. The same measure, in the same setting: the same measure for `CC1(C)Cc2ccc(C#N)cc2[C@@H]1NC(=O)c1cc2cc(F)ccc2[nH]1` [Example 7, (R)—N-(6-Cyano-2,2-dimethyl-2,3-dihydro-1H-inden-1-yl)-5-fluoro-1H-indole-2-carboxamide]: 0.24 ± 0.12 nM.

In the case of `CC1(C)Cc2ccc(C#N)cc2[C@@H]1NC(=O)c1cc2cc([N+](=O)[O-])ccc2[nH]1` [Example 8, (R)—N-(6-Cyano-2,2-dimethyl-2,3-dihydro-1H-inden-1-yl)-5-nitro-1H-indole-2-carboxamide], the inhibition constant (Ki) on hCB2 receptors came out at 4.2 ± 1.6 nM.

On to `CC1(C)Cc2ccc(C#N)cc2[C@@H]1NC(=O)c1cc2cc(N)ccc2[nH]1` [Example 9, (R)-5-Amino-N-(6-cyano-2,2-dimethyl-2,3-dihydro-1H-inden-1-yl)-1H-indole-2-carboxamide], for which, on hCB2 receptors, the inhibition constant Ki was 39 ± 14 nM. Same read-out and setting: the same measure for `COCCNc1ccc2[nH]c(C(=O)N[C@H]3c4cc(C#N)ccc4CC3(C)C)cc2c1` [Example 10, (R)—N-(6-Cyano-2,2-dimethyl-2,3-dihydro-1H-inden-1-yl)-5-(2-methoxyethylamino)-1H-indole-2-carboxamide]: 50 ± 16 nM.

For `COC(=O)c1ccc2c(c1)[C@H](NC(=O)c1cc3cc(Cl)ccc3[nH]1)C(C)(C)C2` [Example 11, (R)-Methyl-3-(5-chloro-1H-indole-2-carboxamido)-2,2-dimethyl-2,3-dihydro-1H-indene-5-carboxylate], the inhibitory constant (Ki) at hCB2 receptors is 35 ± 12 nM.
